Laboratory results as given in ChEMBL document CHEMBL4219265, “Piperlongumine derivative, CG-06, inhibits STAT3 activity by direct binding to STAT3 and regulating the reactive oxygen species in DU145 prostate carcinoma cells” (Bioorg Med Chem Lett, 2018).

Tests used:
DU-145 [1] = experiment: Growth inhibition of human DU145 cells after 48 hrs by WST-1 assay; assay type: functional; settings: DU-145, 48 h
PC-3 [2] = experiment: Growth inhibition of human PC3 cells after 48 hrs by WST-1 assay; assay type: functional; settings: PC-3, 48 h
LNCaP [3] = experiment: Growth inhibition of human LNCAP cells after 48 hrs by WST-1 assay; assay type: functional
[4] = molecular target: T1, Signal transducer and activator of transcription 3 (Homo sapiens, UniProt P40763); experiment: Inhibition of STAT3 phosphorylation at Tyr705 residues in human DU145 cells by Western blot analysis; assay type: cell-based
[5] = molecular target: T1, Signal transducer and activator of transcription 3; experiment: Inhibition of STAT3 phosphorylation at Tyr705 residues in human DU145 cells after 24 hrs by Western blot analysis; assay type: cell-based
[6] = molecular target: T1, Signal transducer and activator of transcription 3; experiment: Inhibition of STAT3 phosphorylation at Tyr705 residues in human DU145 cells assessed as ratio of phosphorylated STAT3 protein level to GAPDH protein level at 1 uM after 24 hrs by Western blot analysis (reference value: 1); assay type: cell-based
[7] = molecular target: T1, Signal transducer and activator of transcription 3; experiment: Inhibition of STAT3 phosphorylation at Tyr705 residues in human DU145 cells assessed as ratio of phosphorylated STAT3 protein level to GAPDH protein level at 5 uM after 24 hrs by Western blot analysis (reference value: 1); assay type: cell-based
DU-145 [8] = experiment: Effect on total STAT3 protein level in human DU145 cells assessed as ratio of STAT3 protein level to GAPDH protein level at 1 uM after 24 hrs by Western blot analysis (reference value: 1); assay type: ADME, cell-based; settings: du-145, 24 h
DU-145 [9] = experiment: Effect on total STAT3 protein level in human DU145 cells assessed as ratio of STAT3 protein level to GAPDH protein level at 5 uM after 24 hrs by Western blot analysis (reference value: 1); assay type: ADME, cell-based; settings: du-145, 24 h
[10] = molecular target: T1, Signal transducer and activator of transcription 3; experiment: Inhibition of STAT3 phosphorylation at Tyr705 residues in human DU145 cells assessed as ratio of phosphorylated STAT3 protein level to GAPDH protein level at 3 uM after 24 hrs by Western blot analysis (reference value: 1); assay type: cell-based
[11] = molecular target: T1, Signal transducer and activator of transcription 3; experiment: Inhibition of STAT3 phosphorylation at Tyr705 residues in human DU145 cells assessed as ratio of phosphorylated STAT3 protein level to GAPDH protein level at 7 uM after 24 hrs by Western blot analysis (reference value: 1); assay type: cell-based
[12] = molecular target: T1, Signal transducer and activator of transcription 3; experiment: Inhibition of STAT3 phosphorylation at Tyr705 residues in human DU145 cells assessed as ratio of phosphorylated STAT3 protein level to GAPDH protein level at 10 uM after 24 hrs by Western blot analysis (reference value: 1); assay type: cell-based
DU-145 [13] = experiment: Effect on total STAT3 protein level in human DU145 cells assessed as ratio of STAT3 protein level to GAPDH protein level at 3 uM after 24 hrs by Western blot analysis (reference value: 1); assay type: ADME, cell-based; settings: du-145, 24 h
DU-145 [14] = experiment: Effect on total STAT3 protein level in human DU145 cells assessed as ratio of STAT3 protein level to GAPDH protein level at 7 uM after 24 hrs by Western blot analysis (reference value: 1); assay type: ADME, cell-based; settings: du-145, 24 h
DU-145 [15] = experiment: Effect on total STAT3 protein level in human DU145 cells assessed as ratio of STAT3 protein level to GAPDH protein level at 10 uM after 24 hrs by Western blot analysis (reference value: 1); assay type: ADME, cell-based; settings: du-145, 24 h
PC-3 [16] = experiment: Growth inhibition of human PC3 cells after 24 to 48 hrs by WST-1 assay; assay type: functional
LNCaP [17] = experiment: Growth inhibition of human LNCAP cells after 24 to 48 hrs by WST-1 assay; assay type: functional
[18] = molecular target: T1, Signal transducer and activator of transcription 3; experiment: Inhibition of STAT3 phosphorylation in human DU145 cells assessed as ratio of phosphorylated STAT3 protein level to GAPDH protein level at […] after 1 hr by Western blot analysis (reference value: 1); assay type: cell-based
DU-145 [19] = experiment: Effect on total STAT3 protein level in human DU145 cells assessed as ratio of ERK1/2 protein level to GAPDH protein level at 2 mM after 1 hr by Western blot analysis (reference value: 1); assay type: ADME, cell-based; settings: du-145, 1 h, 2000 µM

T1 sequence (P40763 whole entry): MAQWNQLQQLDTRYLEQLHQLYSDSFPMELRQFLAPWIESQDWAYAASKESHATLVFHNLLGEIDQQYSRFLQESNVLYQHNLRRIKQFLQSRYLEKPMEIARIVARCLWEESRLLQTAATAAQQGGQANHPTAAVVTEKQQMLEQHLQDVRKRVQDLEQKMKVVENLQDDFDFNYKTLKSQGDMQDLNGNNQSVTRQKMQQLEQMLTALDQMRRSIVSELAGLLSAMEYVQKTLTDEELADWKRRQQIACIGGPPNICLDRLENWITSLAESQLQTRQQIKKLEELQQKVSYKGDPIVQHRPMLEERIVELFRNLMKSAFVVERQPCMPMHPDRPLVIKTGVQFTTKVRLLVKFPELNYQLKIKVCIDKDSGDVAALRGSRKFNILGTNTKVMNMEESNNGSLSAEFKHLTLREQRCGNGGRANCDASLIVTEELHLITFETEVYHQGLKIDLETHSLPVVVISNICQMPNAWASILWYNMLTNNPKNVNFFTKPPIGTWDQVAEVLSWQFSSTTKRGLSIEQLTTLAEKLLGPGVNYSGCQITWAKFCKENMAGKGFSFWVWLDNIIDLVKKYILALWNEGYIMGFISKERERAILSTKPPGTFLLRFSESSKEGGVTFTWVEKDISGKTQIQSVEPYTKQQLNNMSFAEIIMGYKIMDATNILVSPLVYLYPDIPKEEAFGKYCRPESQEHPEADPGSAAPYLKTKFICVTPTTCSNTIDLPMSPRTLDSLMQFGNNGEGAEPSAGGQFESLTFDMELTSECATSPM

Row | Structure (SMILES) | GI50 (DU-145 [1]) | GI50 (PC-3 [2]) | GI50 (LNCaP [3]) | further results
1 | C#CCN(C(=O)/C=C/c1cc(OC)c(OC)c(OC)c1)C(=O)C(=C)C | 2.3 µM | 7.3 µM | > 10 µM | 
2 | COc1cc(/C=C/C(=O)N2CCC=CC2=O)cc(OC)c1OC [PIPLARTINE] | 7.1 µM | > 10 µM | 9.2 µM | inhibition [4]: Dose-dependent effect; IC50 [5]: 7 µM; Ratio [6]: 0.8; Ratio [7]: 0.7; Ratio (DU-145 [8]): 1; Ratio (DU-145 [9]): 1; Ratio [10]: 0.7; Ratio [11]: 0.5; Ratio [12]: 0.3; Ratio (DU-145 [13]): 1.1; Ratio (DU-145 [14]): 1; Ratio (DU-145 [15]): 0.9; GI50 (PC-3 [16]): > 10 µM; GI50 (LNCaP [17]): > 10 µM
3 | C=C(C)C(=O)N(C)C(=O)/C=C/c1cc(OC)c(OC)c(OC)c1 | 5.6 µM | > 10 µM | > 10 µM | 
4 | C=C(C)C(=O)NC(=O)/C=C/c1cc(OC)c(OC)c(OC)c1 | 8.6 µM | 8.2 µM | 10 µM | 
5 | C=C(C)C(=O)N(Cc1cccc(Br)c1)C(=O)/C=C/c1cc(OC)c(OC)c(OC)c1 | 5.7 µM | > 10 µM | 10 µM | 
6 | CC(=O)N[C@@H](CS)C(=O)O [ACETYLCYSTEINE] |  |  |  | Ratio [18]: 1; Ratio (DU-145 [19]): 0.8
7 | C=C(C)C(=O)N(Cc1ccccc1C)C(=O)/C=C/c1cc(OC)c(OC)c(OC)c1 | 4.2 µM | > 10 µM | 10 µM | 
